Measurements reported in patent US20200222347A1, “ANTIMICROBIALS AND METHODS OF USE THEREOF” (priority 2013, published 2020).
Several values for one entry are separate records, joined by “and”; a condition that tells them apart may be missing. Equal entries are not always repeated.

Columns and labels:
S. mutans = assay: Kirby-Bauer disc diffusion antimicrobial susceptibility; format: cell-based; settings: 100 mM, carrier water
S. pyogenes = assay: as above; format: cell-based; settings: 100 mM, carrier water
all bacteria tested = assay: In vitro antimicrobial susceptibility, whole panel; format: cell-based
S. aureus 33591 (MRSA) = assay: Kirby-Bauer disc diffusion antimicrobial susceptibility; format: cell-based, Staphylococcus aureus; settings: 100 mM, carrier water; 18-24 hours for aerobes
C difficile = assay: as above; format: cell-based; settings: 100 mM, carrier water; 48 hours for anaerobes
S. aureus 6538 = assay: as above; format: cell-based; settings: 100 mM, carrier water; 18-24 hours for aerobes
C. perfringens = format: cell-based; settings: 100 mM, carrier water
P. aeruginosa = assay: Kirby-Bauer disc diffusion antimicrobial susceptibility; format: cell-based, Pseudomonas aeruginosa; settings: 100 mM, carrier water; 18-24 hours for aerobes
[1] = test system: Pseudomonas aeruginosa ATCC9027; assay: Paper disc test with water or propylene glycol, Example 10
[2] = test system: E. coli, ATTC 8739 and ATCC 43895; assay: Kirby-Bauer disc diffusion antimicrobial susceptibility; format: cell-based; settings: 100 mM, carrier water; 18-24 hours for aerobes
Legionella 43662 = format: cell-based
[3] = test system: Staphylococcus aureus ATCC33591 (MRSA); assay: Paper disc test with water or propylene glycol, Example 10
K. pneumoniae = assay: Kirby-Bauer disc diffusion antimicrobial susceptibility; format: cell-based; settings: 100 mM, carrier water; 18-24 hours for aerobes
[4] = test system: Aureobasidium pullulans, ATCC 15233; assay: In vitro test of 2, 4, 6 Trihydroxybenzaldehyde against a fungi; format: cell-based; settings: 100 mM
[5] = test system: Staphylococcus epidermidis ATCC 51625 (MRSE); assay: In vitro antimicrobial test (FIG. 32); format: cell-based

Oc1cc(O)c2cc(O)c(-c3ccc(O)c(O)c3)[o+]c2c1.[Cl-] [Cyanidin CI, cyanidin chloride]
effectiveness against S. mutans (S. mutans): effective | effectiveness against S. pyogenes (S. pyogenes): effective | antibiotic properties (summary) (all bacteria tested): limited antibiotic properties | effectiveness against S. aureus 33591 (MRSA) (S. aureus 33591 (MRSA)): effective | effectiveness against C. difficile (growth inhibition) (C difficile): effective | effectiveness against S. aureus 6538 (S. aureus 6538): effective | effectiveness against C. perfringens (growth inhibition) (C. perfringens): effective

O=C(O)CNC(=O)c1ccccc1 [hippuric acid]
antibiotic properties (summary) (all bacteria tested): little activity

O=Cc1c(O)cc(O)cc1O [2, 4, 6 Trihydroxybenzaldehyde, 2, 4, 6 trihydroxybenzaldehyde]
effectiveness against P. aeruginosa (P. aeruginosa): effective | inhibition of growth under the sample ([1]; PPG): I | zone of inhibition ([1]; PPG): 3 mm | inhibition of growth under the sample ([1]; Water): I | zone of inhibition ([1]; Water, listed as 246 THBA): 2 mm and 3 mm | effectiveness against E. coli [2]: effective | effectiveness against Legionella 43662 (Legionella 43662): effective | inhibition of growth under the sample ([3]; PPG): I | zone of inhibition ([3]; PPG): 12 mm | inhibition of growth under the sample ([3]; Water): I | zone of inhibition ([3]; Water, listed as 246 THBA): 14 mm and 15 mm | effectiveness against K. pneumoniae (K. pneumoniae): effective | effectiveness against A. pullulans, a fungi [4]: effective | antibiotic properties (summary) (all bacteria tested): broad spectrum antibiotic | effectiveness against S. aureus 33591 (MRSA) (S. aureus 33591 (MRSA)): effective | effectiveness against S. aureus 6538 (S. aureus 6538): effective | effectiveness against MRSE ATCC 51625 [5]: effective

CC1(C)S[C@@H]2[C@H](NC(=O)[C@H](N)c3ccc(O)cc3)C(=O)N2[C@H]1C(=O)O [Amoxicillin, amoxicillin, reference compound]
effectiveness against P. aeruginosa (P. aeruginosa): no effect

COc1cc(C(=O)O)ccc1O [vanillic acid]
antibiotic properties (summary) (all bacteria tested): little activity
